Measurements as given in patent US20150064220A1, “METHODS FOR MODULATING CELL-MEDIATED IMMUNITY USING HUMAN MILK OLIGOSACCHARIDES” (ABBOTT LABORATORIES, priority 2012, published 2015).

How the values were obtained:
[1] = system: Peripheral blood mononuclear cells (PBMCs); experiment: PBMC proliferation by tritiated thymidine incorporation, with or without the T-cell mitogen PHA; format: cell-based, piglets; conditions: 72 hours; for unstimulated peripheral blood mononuclear cell proliferation: HMO or HMO mixture 125 μg/mL alone (no PHA), FIG. 2; for PHA-stimulated peripheral blood mononuclear cell proliferation: HMO or HMO mixture 125 μg/mL with 25 μg/mL PHA, compared to cultures containing no HMO, FIG. 1
Method: T-cell mediated responses were assessed by proliferative responses to the T-cell mitogen phytohemagglutinin (PHA) (simulates infection). […] Peripheral blood mononuclear cells (PBMCs) were isolated using standard density gradient (Ficoll-Paque PLUS) techniques. Residual red blood cells were lysed with a hypotonic ammonium chloride solution. Cells were washed and resuspended in RPMI (Roswell Park Memorial Institute medium) media containing: 10% fetal bovine serum, 2 mM Glutamine, 1 mM sodium pyruvate, 20 mM HEPES (4-(2-hydroxyethyl)-1-piperazineethanesulfonic acid), 50 μg/mL gentamicin, 1000 IU/mL penicillin and 100 μg/mL streptomycin, at a concentration of 1×10^6/mL, and then cultured in the presence or absence of the individual HMOs or HMO mixtures at a concentration of 125 μg/mL, alone or in combination with 25 μg/mL PHA. Cells were cultured for 72 hours, and cellular proliferation was determined using standard tritiated thymidine incorporation methodology.

[2] = system: T regulatory cells (FoxP3+, CD4+, CD25+) in mesenteric lymph nodes; experiment: T-regulatory cells in mesenteric lymph nodes of orally supplemented mice, by flow cytometry; format: in vivo; conditions: oral 7.5 mg daily for 5 days versus PBS, day six, FIG. 3
Method: Mice were orally supplemented with 7.5 mg of 2′FL in 200 μL of PBS (n=5) or 200 μL of PBS (n=5) daily for 5 days. On day six, mice were sacrificed and lymphocytes from mesenteric lymph nodes were removed and isolated using standard methods. Mesenteric lymph node lymphocytes (MLNLs) were stained with fluorochrome labeled monoclonal antibodies specific for CD4 and CD25 surface markers. Cells were then fixed with a paraformaldehyde solution to maintain surface marker staining integrity. Stained MLNLs were permeabilized with a saponin-based solution to allow for intracellular uptake of monoclonal antibodies and then stained with a fluorochrome labeled monoclonal antibody specific for the transcription factor FoxP3. All cell preparation methods used were based on recommendations of the monoclonal antibody manufacturer. MLNL suspensions were analyzed by flow cytometery. FoxP3^+, CD4^+, and CD25^+ cells are classified T regulatory cells.

[3] = system: gastrointestinal epithelial cells; conditions: Kuntz et al (2008); cited from earlier work

2′-fucosyllactose [2′FL]
unstimulated peripheral blood mononuclear cell proliferation [1]: decreased unstimulated peripheral blood mononuclear cell proliferation
percentage of T-regulatory cells in mesenteric lymph nodes [2]: generation of T regulatory cells

3-fucosyllactose [3′FL]
unstimulated peripheral blood mononuclear cell proliferation [1]: decreased unstimulated peripheral blood mononuclear cell proliferation

CC(=O)N[C@H]1[C@H](O[C@H]2[C@@H](O)[C@@H](CO)O[C@@H](O[C@H]3[C@H](O)[C@@H](O)C(O)O[C@@H]3CO)[C@@H]2O)O[C@H](CO)[C@@H](O[C@@H]2O[C@H](CO)[C@H](O)[C@H](O)[C@H]2O)[C@@H]1O (mixture of isomers) [LNnT, Lacto-N-neotetraose]
unstimulated peripheral blood mononuclear cell proliferation [1]: this was not seen
PHA-stimulated peripheral blood mononuclear cell proliferation [1]: did not significantly enhance proliferation

Fucosyllactose [FL]
PHA-stimulated peripheral blood mononuclear cell proliferation [1]: did not significantly enhance proliferation

sialyllactose [SL]
differentiation of gastrointestinal epithelial cells [3]: increases differentiation
proliferation of gastrointestinal epithelial cells [3]: decreases proliferation
